Tests used:
Test in all cases: PathHunter β-arrestin GpcrMAX assay
Assay type in all cases: cell-based
[1] = target: AGTRL1 (Homo sapiens, UniProt P35414)
How it was run: (§1)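 Agonist- and antagonist-mode screening of taveuniamide F (20 µM) using PathHunter β-arrestin EFC technology.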

[2] = target: AVPR1A (Homo sapiens, UniProt P37288)
How it was run: as §1

[3] = target: BRS3 (Homo sapiens, UniProt P32247)
How it was run: as §1

[4] = target: C3AR1 (Homo sapiens, UniProt Q16581)
How it was run: as §1

[5] = target: C5aR1 (Homo sapiens, UniProt P21730)
How it was run: as §1

[6] = target: T1, CCR2 (Homo sapiens, UniProt P41597)
T1 construct: purchased DiscoveRx (Eurofins) gpcrMAX PathHunter β-arrestin panel
How it was run: as §1

[7] = target: T2, CHRM1 (Homo sapiens, UniProt P11229)
T2 construct: purchased DiscoveRx (Eurofins) gpcrMAX PathHunter β-arrestin panel
How it was run: as §1

[8] = target: T3, CRHR2 (Homo sapiens, UniProt Q13324)
T3 construct: purchased DiscoveRx (Eurofins) gpcrMAX PathHunter β-arrestin panel
T3 sequence (Q13324 whole entry): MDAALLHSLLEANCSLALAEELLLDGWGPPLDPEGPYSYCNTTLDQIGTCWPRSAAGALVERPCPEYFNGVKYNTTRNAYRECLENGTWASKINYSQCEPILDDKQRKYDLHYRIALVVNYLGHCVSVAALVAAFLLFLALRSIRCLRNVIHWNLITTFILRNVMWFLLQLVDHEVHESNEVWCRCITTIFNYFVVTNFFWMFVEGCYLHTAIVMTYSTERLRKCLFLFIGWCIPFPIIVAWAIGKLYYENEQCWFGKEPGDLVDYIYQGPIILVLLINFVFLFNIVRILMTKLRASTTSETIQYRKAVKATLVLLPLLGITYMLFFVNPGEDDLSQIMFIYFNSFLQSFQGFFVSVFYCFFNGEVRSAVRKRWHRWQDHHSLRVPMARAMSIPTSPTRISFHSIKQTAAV
How it was run: as §1

[9] = target: T4, CRTH2 (Homo sapiens, UniProt Q9Y5Y4)
T4 construct: purchased DiscoveRx (Eurofins) gpcrMAX PathHunter β-arrestin panel
How it was run: as §1

[10] = target: T5, CX3CR1 (Homo sapiens, UniProt P49238)
T5 construct: purchased DiscoveRx (Eurofins) gpcrMAX PathHunter β-arrestin panel
How it was run: as §1

[11] = target: T6, CXCR1 (Homo sapiens, UniProt P25024)
T6 construct: purchased DiscoveRx (Eurofins) gpcrMAX PathHunter β-arrestin panel
T6 sequence (P25024 whole entry): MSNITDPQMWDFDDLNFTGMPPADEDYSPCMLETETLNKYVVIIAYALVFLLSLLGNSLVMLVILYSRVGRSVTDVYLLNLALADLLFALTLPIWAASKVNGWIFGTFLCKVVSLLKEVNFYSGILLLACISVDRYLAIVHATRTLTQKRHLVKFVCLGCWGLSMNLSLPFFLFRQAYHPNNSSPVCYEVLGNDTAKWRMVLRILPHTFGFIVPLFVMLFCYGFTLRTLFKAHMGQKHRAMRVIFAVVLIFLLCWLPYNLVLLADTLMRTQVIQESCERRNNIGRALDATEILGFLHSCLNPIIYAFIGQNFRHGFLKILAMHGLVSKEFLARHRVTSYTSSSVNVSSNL
How it was run: as §1

[12] = target: T7, CXCR2 (Homo sapiens, UniProt P25025)
T7 construct: purchased DiscoveRx (Eurofins) gpcrMAX PathHunter β-arrestin panel
T7 sequence (P25025 whole entry): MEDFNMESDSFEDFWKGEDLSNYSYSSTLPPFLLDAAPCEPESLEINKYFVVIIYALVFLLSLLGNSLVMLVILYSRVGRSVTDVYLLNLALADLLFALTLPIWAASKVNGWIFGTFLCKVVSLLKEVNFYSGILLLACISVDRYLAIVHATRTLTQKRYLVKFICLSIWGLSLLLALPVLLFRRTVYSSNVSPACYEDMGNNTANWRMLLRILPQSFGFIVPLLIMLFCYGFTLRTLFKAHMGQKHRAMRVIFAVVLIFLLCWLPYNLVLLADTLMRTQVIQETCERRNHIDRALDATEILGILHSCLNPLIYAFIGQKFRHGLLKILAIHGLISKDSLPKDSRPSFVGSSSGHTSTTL
How it was run: as §1

[13] = target: T8, CXCR5 (Homo sapiens, UniProt P32302)
T8 construct: purchased DiscoveRx (Eurofins) gpcrMAX PathHunter β-arrestin panel
How it was run: as §1

[14] = target: T9, CXCR7 (Homo sapiens, UniProt P25106)
T9 construct: purchased DiscoveRx (Eurofins) gpcrMAX PathHunter β-arrestin panel
How it was run: as §1

[15] = target: T10, DRD2S (Homo sapiens, UniProt P14416)
T10 construct: purchased DiscoveRx (Eurofins) gpcrMAX PathHunter β-arrestin panel
T10 sequence (P14416 1-414 isoform P14416-2): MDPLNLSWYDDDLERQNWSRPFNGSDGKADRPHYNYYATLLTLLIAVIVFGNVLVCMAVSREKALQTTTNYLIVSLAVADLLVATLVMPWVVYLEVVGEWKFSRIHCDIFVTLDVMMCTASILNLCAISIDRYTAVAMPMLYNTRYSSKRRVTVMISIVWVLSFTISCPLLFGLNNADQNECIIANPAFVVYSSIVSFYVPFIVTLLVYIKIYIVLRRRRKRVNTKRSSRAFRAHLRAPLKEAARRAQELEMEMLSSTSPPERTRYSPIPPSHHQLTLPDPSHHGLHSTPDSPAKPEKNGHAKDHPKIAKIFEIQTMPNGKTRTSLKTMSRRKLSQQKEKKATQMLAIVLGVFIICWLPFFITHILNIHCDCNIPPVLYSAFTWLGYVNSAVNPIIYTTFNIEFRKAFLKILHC
How it was run: as §1

[16] = target: T11, DRD5 (Homo sapiens, UniProt P21918)
T11 construct: purchased DiscoveRx (Eurofins) gpcrMAX PathHunter β-arrestin panel
How it was run: as §1

[17] = target: T12, EDG1 (Homo sapiens, UniProt P21453)
T12 construct: purchased DiscoveRx (Eurofins) gpcrMAX PathHunter β-arrestin panel
How it was run: as §1

[18] = target: T13, EDG4 (Homo sapiens, UniProt Q9HBW0)
T13 construct: purchased DiscoveRx (Eurofins) gpcrMAX PathHunter β-arrestin panel
How it was run: as §1

[19] = target: T14, EDG5 (Homo sapiens, UniProt O95136)
T14 construct: purchased DiscoveRx (Eurofins) gpcrMAX PathHunter β-arrestin panel
How it was run: as §1

[20] = target: T15, F2R (Homo sapiens, UniProt P25116)
T15 construct: purchased DiscoveRx (Eurofins) gpcrMAX PathHunter β-arrestin panel
How it was run: as §1

[21] = target: T16, FFAR1 (Homo sapiens, UniProt O14842)
T16 construct: purchased DiscoveRx (Eurofins) gpcrMAX PathHunter β-arrestin panel
How it was run: as §1

[22] = target: T17, FPR1 (Homo sapiens, UniProt P21462)
T17 construct: purchased DiscoveRx (Eurofins) gpcrMAX PathHunter β-arrestin panel
How it was run: as §1

[23] = target: T18, GCGR (Homo sapiens, UniProt P47871)
T18 construct: purchased DiscoveRx (Eurofins) gpcrMAX PathHunter β-arrestin panel
T18 sequence (P47871 26-477): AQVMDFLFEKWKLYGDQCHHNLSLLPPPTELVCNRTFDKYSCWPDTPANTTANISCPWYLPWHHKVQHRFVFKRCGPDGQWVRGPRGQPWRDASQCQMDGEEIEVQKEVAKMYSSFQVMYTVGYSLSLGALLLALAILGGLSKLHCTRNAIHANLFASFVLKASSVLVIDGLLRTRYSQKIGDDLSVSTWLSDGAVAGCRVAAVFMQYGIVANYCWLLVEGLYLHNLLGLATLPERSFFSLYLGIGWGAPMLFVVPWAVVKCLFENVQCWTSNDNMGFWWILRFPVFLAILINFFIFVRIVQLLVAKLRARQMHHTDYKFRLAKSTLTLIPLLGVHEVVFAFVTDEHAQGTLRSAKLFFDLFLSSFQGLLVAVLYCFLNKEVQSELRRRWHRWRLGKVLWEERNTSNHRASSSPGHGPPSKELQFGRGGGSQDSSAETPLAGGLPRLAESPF
How it was run: as §1

[24] = target: T19, GIPR (Homo sapiens, UniProt P48546)
T19 construct: purchased DiscoveRx (Eurofins) gpcrMAX PathHunter β-arrestin panel
How it was run: as §1

[25] = target: T20, GPR35 (Homo sapiens, UniProt Q9HC97)
T20 construct: purchased DiscoveRx (Eurofins) gpcrMAX PathHunter β-arrestin panel
How it was run: as §1

[26] = target: T21, HCRTR2 (Homo sapiens, UniProt O43614)
T21 construct: purchased DiscoveRx (Eurofins) gpcrMAX PathHunter β-arrestin panel
How it was run: as §1

[27] = target: T22, HRH1 (Homo sapiens, UniProt P35367)
T22 construct: purchased DiscoveRx (Eurofins) gpcrMAX PathHunter β-arrestin panel
How it was run: as §1

[28] = target: T23, HRH4 (Homo sapiens, UniProt Q9H3N8)
T23 construct: purchased DiscoveRx (Eurofins) gpcrMAX PathHunter β-arrestin panel
How it was run: as §1

[29] = target: T24, HTR1A (Homo sapiens, UniProt P08908)
T24 construct: purchased DiscoveRx (Eurofins) gpcrMAX PathHunter β-arrestin panel
How it was run: as §1

[30] = target: T25, HTR1B (Homo sapiens, UniProt P28222)
T25 construct: purchased DiscoveRx (Eurofins) gpcrMAX PathHunter β-arrestin panel
T25 sequence (P28222 whole entry): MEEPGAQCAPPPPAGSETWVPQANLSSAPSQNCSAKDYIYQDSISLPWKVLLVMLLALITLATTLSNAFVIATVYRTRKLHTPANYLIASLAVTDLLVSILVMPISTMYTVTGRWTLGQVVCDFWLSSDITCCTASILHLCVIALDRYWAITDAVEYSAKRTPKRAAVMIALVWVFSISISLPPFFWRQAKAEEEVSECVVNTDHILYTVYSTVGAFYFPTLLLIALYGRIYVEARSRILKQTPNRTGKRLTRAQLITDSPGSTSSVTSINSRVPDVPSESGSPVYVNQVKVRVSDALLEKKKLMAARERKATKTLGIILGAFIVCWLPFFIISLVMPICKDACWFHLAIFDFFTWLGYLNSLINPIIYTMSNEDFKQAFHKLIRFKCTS
How it was run: as §1

[31] = target: T26, HTR1F (Homo sapiens, UniProt P30939)
T26 construct: purchased DiscoveRx (Eurofins) gpcrMAX PathHunter β-arrestin panel
How it was run: as §1

[32] = target: T27, MC1R (Homo sapiens, UniProt Q01726)
T27 construct: purchased DiscoveRx (Eurofins) gpcrMAX PathHunter β-arrestin panel
How it was run: as §1

[33] = target: T28, MC4R (Homo sapiens, UniProt P32245)
T28 construct: purchased DiscoveRx (Eurofins) gpcrMAX PathHunter β-arrestin panel
How it was run: as §1

[34] = target: T29, MTNR1A (Homo sapiens, UniProt P48039)
T29 construct: purchased DiscoveRx (Eurofins) gpcrMAX PathHunter β-arrestin panel
How it was run: as §1

[35] = target: T30, NPBWR1 (Homo sapiens, UniProt P48145)
T30 construct: purchased DiscoveRx (Eurofins) gpcrMAX PathHunter β-arrestin panel
T30 sequence (P48145 whole entry): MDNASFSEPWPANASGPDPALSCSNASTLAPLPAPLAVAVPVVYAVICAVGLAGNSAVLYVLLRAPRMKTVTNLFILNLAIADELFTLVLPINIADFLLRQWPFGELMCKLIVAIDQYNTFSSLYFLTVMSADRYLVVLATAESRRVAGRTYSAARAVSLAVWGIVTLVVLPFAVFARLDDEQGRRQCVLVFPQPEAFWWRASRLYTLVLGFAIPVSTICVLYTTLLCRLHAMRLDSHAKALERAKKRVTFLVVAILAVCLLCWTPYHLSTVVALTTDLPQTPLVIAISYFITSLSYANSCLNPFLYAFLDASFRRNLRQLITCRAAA
How it was run: as §1

[36] = target: T31, NPBWR2 (Homo sapiens, UniProt P48146)
T31 construct: purchased DiscoveRx (Eurofins) gpcrMAX PathHunter β-arrestin panel
How it was run: as §1

[37] = target: T32, NTSR1 (Homo sapiens, UniProt P30989)
T32 construct: purchased DiscoveRx (Eurofins) gpcrMAX PathHunter β-arrestin panel
T32 sequence (P30989 whole entry): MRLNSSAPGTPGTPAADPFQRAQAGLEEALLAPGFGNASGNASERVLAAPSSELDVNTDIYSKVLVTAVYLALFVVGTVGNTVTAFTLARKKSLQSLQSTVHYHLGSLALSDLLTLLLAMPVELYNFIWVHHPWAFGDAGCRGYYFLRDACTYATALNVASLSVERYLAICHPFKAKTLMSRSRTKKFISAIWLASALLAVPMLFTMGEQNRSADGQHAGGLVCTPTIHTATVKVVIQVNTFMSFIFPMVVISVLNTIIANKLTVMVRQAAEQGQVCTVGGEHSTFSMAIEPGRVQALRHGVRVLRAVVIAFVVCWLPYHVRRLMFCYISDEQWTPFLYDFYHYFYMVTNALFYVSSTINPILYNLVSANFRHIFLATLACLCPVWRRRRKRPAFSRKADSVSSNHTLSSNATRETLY
How it was run: as §1

[38] = target: T33, OXER1 (Homo sapiens, UniProt Q8TDS5)
T33 construct: purchased DiscoveRx (Eurofins) gpcrMAX PathHunter β-arrestin panel
How it was run: as §1

[39] = target: T34, OXTR (Homo sapiens, UniProt P30559)
T34 construct: purchased DiscoveRx (Eurofins) gpcrMAX PathHunter β-arrestin panel
T34 sequence (P30559 whole entry): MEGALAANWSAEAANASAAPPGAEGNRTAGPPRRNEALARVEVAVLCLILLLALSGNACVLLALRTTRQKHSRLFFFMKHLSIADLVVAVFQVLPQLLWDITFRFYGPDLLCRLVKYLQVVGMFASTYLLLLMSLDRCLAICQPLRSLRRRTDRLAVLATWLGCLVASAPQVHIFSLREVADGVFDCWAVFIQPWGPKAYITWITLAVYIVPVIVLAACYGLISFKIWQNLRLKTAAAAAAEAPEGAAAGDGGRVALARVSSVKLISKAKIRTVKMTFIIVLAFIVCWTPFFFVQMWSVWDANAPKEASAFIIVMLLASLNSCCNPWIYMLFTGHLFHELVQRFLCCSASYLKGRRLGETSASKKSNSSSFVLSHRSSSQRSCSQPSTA
How it was run: as §1

[40] = target: T35, P2RY11 (Homo sapiens, UniProt Q96G91)
T35 construct: purchased DiscoveRx (Eurofins) gpcrMAX PathHunter β-arrestin panel
How it was run: as §1

[41] = target: T36, PROKR1 (Homo sapiens, UniProt Q8TCW9)
T36 construct: purchased DiscoveRx (Eurofins) gpcrMAX PathHunter β-arrestin panel
How it was run: as §1

[42] = target: T37, PTGFR (Homo sapiens, UniProt P43088)
T37 construct: purchased DiscoveRx (Eurofins) gpcrMAX PathHunter β-arrestin panel
How it was run: as §1

[43] = target: T38, SSTR5 (Homo sapiens, UniProt P35346)
T38 construct: purchased DiscoveRx (Eurofins) gpcrMAX PathHunter β-arrestin panel
How it was run: as §1

Sequence of C3AR1 (Q16581 whole entry): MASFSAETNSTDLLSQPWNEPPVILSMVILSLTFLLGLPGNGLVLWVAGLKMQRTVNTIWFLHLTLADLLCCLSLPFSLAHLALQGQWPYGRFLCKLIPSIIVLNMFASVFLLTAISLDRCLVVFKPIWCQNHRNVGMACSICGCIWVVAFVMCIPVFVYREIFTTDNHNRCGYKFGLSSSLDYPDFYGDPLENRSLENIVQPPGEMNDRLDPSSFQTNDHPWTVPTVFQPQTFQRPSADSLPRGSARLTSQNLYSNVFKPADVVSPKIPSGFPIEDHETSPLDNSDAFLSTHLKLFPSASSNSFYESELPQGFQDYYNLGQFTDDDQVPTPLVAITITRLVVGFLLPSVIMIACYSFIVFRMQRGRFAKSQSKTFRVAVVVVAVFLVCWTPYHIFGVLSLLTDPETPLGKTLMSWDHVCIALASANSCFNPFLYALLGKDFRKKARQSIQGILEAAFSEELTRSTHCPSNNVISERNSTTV
Sequence of BRS3 (P32247 whole entry): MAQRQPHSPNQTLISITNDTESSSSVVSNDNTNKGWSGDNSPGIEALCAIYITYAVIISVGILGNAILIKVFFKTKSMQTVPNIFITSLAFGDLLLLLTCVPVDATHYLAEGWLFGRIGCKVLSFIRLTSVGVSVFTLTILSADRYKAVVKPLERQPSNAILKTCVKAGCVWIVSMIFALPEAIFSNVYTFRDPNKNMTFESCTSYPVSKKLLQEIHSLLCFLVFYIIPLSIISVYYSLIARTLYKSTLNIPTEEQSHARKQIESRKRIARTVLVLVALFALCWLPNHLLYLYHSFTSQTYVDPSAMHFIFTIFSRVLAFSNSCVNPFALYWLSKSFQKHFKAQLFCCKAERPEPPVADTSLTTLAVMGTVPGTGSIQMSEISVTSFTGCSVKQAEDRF
Sequence of AVPR1A (P37288 whole entry): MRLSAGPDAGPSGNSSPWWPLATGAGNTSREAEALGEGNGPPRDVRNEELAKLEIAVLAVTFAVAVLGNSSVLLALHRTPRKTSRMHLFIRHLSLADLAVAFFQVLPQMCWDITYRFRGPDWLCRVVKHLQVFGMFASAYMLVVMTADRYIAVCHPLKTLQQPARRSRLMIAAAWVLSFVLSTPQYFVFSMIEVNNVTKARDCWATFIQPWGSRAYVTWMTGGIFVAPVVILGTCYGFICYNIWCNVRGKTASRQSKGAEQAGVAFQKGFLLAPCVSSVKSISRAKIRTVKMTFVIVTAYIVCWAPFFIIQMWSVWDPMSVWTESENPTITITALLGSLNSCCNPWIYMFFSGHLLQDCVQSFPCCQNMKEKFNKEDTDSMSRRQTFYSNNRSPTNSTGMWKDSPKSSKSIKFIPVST

With CC(=O)N[C@@H](CCCC#C/C=C/Cl)CCCCCCC(Cl)Cl [Compound 4, taveuniamide F] the inhibition at 20 µM [1] was 6.8%, the inhibition at 20 µM [2] was 48.5% and the inhibition at 20 µM [3] was 15.9%. The inhibition at 20 µM [4] was 10.3%, the inhibition at 20 µM [5] was 1.4% and the inhibition at 20 µM [6] was -1.7%. The inhibition at 20 µM [7] was 21.8%, the inhibition at 20 µM [8] was 12% and the inhibition at 20 µM [9] was 16.9%. The inhibition at 20 µM [10] was 35.6%, the inhibition at 20 µM [11] was 15.3% and the inhibition at 20 µM [12] was 20.5%. It also gave an inhibition at 20 µM [13] of 5.1%, an inhibition at 20 µM [14] of 3.6% and an inhibition at 20 µM [15] of -8.1%. The inhibition at 20 µM [16] was 2.7%, the inhibition at 20 µM [17] was 33.1% and the inhibition at 20 µM [18] was 56.3%. The inhibition at 20 µM [19] was 0.8%, the inhibition at 20 µM [20] was 11.7% and the inhibition at 20 µM [21] was 42%. The inhibition at 20 µM [22] was -4.7%, the inhibition at 20 µM [23] was 2.2% and the inhibition at 20 µM [24] was 23.3%. It also gave an inhibition at 20 µM [25] of 27.1%, an inhibition at 20 µM [26] of 11.6% and an inhibition at 20 µM [27] of 3%. The inhibition at 20 µM [28] was 38.1%, the inhibition at 20 µM [29] was 15.2% and the inhibition at 20 µM [30] was 33.9%. The inhibition at 20 µM [31] was 41.7%, the inhibition at 20 µM [32] was 10.2% and the inhibition at 20 µM [33] was 49.1%. The inhibition at 20 µM [34] was 20.2%, the inhibition at 20 µM [35] was -12.1% and the inhibition at 20 µM [36] was 13.7%. For the same compound, the inhibition at 20 µM [37] was 18.8%, the inhibition at 20 µM [38] was 18.1% and the inhibition at 20 µM [39] was 34.2%. It also gave an inhibition at 20 µM [40] of 8.2%, an inhibition at 20 µM [41] of 37.6% and an inhibition at 20 µM [42] of 43.1%. It also gave an inhibition at 20 µM [43] of 2.4%.
